Values joined by “and” are separate entries in the source; they are usually repeats but may differ in a detail not shown here. Equal entries are not always repeated. Where two headings read alike, the source gives them in different places.
Legend:
Type in all cases: in vivo
corn plants = test: Test Example 13: field plot test, injury on corn; conditions: Example 8 suspension concentrate, 4 days after treatment, 0 for no injury to 5 for severe injure
Excerpt: (§1) In field plots of 4 m² (1 m × 4 m) unit arranged in a duplicate system, seeds of corn, crabgrass (Digitaria sanguinalis L.) common lambsquarters (Chenopodium album L.), slender amaranth (Amaranthus viridis L.), velvetleaf (Abutilon theophrasti MEDIC.) and common cocklebur (Xanthium strumarium L.) were sown and grown. Also, green foxtail (Setaria viridis L.) and barnyardgrass (Echinochloa crus-galli L.) were allowed to grow spontaneously. When the plants grew to certain stages (corn: 4.2 to 6.0-leaf stage, crabgrass: 3.2 to 5.0-leaf stage, common lambsquarters: 3.0 to 6.0-leaf stage, slender amaranth: 2.0 to 5.0-leaf stage, velvetleaf: 1.5 to 4.0-leaf stage, common cocklebur: cotyledonal to 3.5-leaf stage, green foxtail: 3.0 to 5.0-leaf stage and barnyardgrass: 3.0 to 5.0-leaf stage), the oil-based suspension concentrate obtained in Example 8 was diluted with 200 liters/hectare of water containing a predetermined amount of Frigate and was applied foliarly to the plants with a small spray gun.
On the other hand, 4 days after treatment, corn plants were examined for condition of injury (degree of discoloration and yellowing) with visual observation and the results are also shown in Table 13 (0 for no injury to 5 for severe injure).

total evaluation [1] = test: Test Example 13: field plot test, total evaluation of growth inhibition; conditions: Example 8 suspension concentrate, 27 days after treatment, field plots; for inhibition at 40 g/ha: Compound A 40 g/ha
Excerpt: as §1
Twenty seven days after treatment, the growth inhibition of plants except for corn plants was evaluated with visual observation in the same manner as in Test Example 1 and are shown in Table 13.

[2] = tested on: henbit (Lamiun amplexlcaule L.); test: Test Example 12: field plot test, growth inhibition; conditions: 648 h, Example 8 suspension concentrate, 27 days after treatment, field plots, read-out: Growth Inhibition (%) LA
Excerpt: (§2) In field plots of 3 m² (1 m × 3 m) unit arranged in a duplicate system, seeds of corn, crabgrass (Digitaria sanguinalis L.), green foxtail (Setaria viridis L.), common lambsquarters (Chenopodium album L.), slender amaranth (Amaranthus virdis L.) and velvetleaf (Abutilon theophrasti MEDIC.) were sown and grown. Also, barnyardgrass (Echinochloa crus-galli L.), henbit (Lamiun amplexlcaule L.), pale smartweed (Polygonum lapathifolium L.) and threeseeded copperleaf (Acalypha australis L.) were allowed to grow spontaneously. When the plants grew to certain stages (corn: 6.1 to 6.5-leaf stage, crabgrass: 2.0 to 4.5-leaf stage, green foxtail: 3.0 to 4.5-leaf stage, common lambsquarters: 4.0 to 8.0-leaf stage, slender amaranth: 1.0 to 4.0-leaf stage, velvetleaf: 2.0 to 3.5-leaf stage, barnyardgrass: 3.0 to 4.5-leaf stage, henbit: 2.0 to 5.0 cm, pale smartweed: 3.0 to 5.0-leaf stage and threeseeded copperleaf: 2.0 to 4.0-leaf stage), the oil-based suspension concentrate obtained in Example 8 was diluted with 200 liters/hectare of water containing a predetermined amount of Frigate and was applied foliarly to the plants with a small spray gun.
(§3) Twenty seven days after treatment, the growth inhibition of plants except for corn plants was evaluated with visual observation in the same manner as in Test Example 1 and are shown in Table 12.

[3] = tested on: slender amaranth (Amaranthus virdis L.); test: as above; conditions: 648 h, Example 8 suspension concentrate, 27 days after treatment, field plots, read-out: Growth Inhibition (%) AV; for inhibition at 40 g/ha: Compound A 40 g/ha; for inhibition at 60 g/ha: Compound A 60 g/ha
Excerpt: as §2, §3

[4] = tested on: Velvetleaf (Abutilon theophrasti MEDIC.); test: as above; conditions: Example 8 suspension concentrate, 27 days after treatment, field plots; for inhibition at 40 g/ha: Compound A 40 g/ha
Excerpt: as §2, §3

[5] = tested on: Common lambsquarters (Chenopodium album L.); test: as above; conditions: Example 8 suspension concentrate, 27 days after treatment, field plots; for inhibition at 40 g/ha: Compound A 40 g/ha; for inhibition at 60 g/ha: Compound A 60 g/ha
Excerpt: as §2, §3

[6] = tested on: pale smartweed (Polygonum lapathifolium L.); test: as above; conditions: Example 8 suspension concentrate, 27 days after treatment, field plots; for inhibition at 60 g/ha: Compound A 60 g/ha
Excerpt: as §2, §3

[7] = tested on: barnyardgrass (Echinochloa crus-galli L.); test: as above; conditions: 648 h, Example 8 suspension concentrate, 27 days after treatment, field plots, read-out: Growth Inhibition (%) EC
Excerpt: as §2, §3

total evaluation [8] = test: Test Example 12: field plot test, total evaluation of growth inhibition; conditions: 648 h, Example 8 suspension concentrate, 27 days after treatment, field plots, read-out: Growth Inhibition (%) TE; for inhibition at 40 g/ha: Compound A 40 g/ha; for inhibition at 60 g/ha: Compound A 60 g/ha
Excerpt: as §2, §3

[9] = Frigate 0.2 % by volume, Compound A 20 g/ha
[10] = Frigate 0.2 % by volume, Compound A 30 g/ha
[11] = Frigate 0.2 % by volume, Compound A 40 g/ha
[12] = Frigate: No addition, Compound A 30 g/ha
[13] = Frigate: No addition, Compound A 40 g/ha
[14] = Frigate: No addition, Compound A 60 g/ha
[15] = Chenopodium album, 648 h, Frigate 0.2 % by volume, read-out: Growth Inhibition (%) CA
[16] = Chenopodium album, 648 h, Frigate: No addition, read-out: Growth Inhibition (%) CA

For `COc1cc(OC)nc(NC(=O)NS(=O)(=O)c2ncccc2C(=O)N(C)C)n1` [Compound A, N-[(4,6-dimethoxypyrimidin-2-yl)aminocarbonyl]-3-dimethylaminocarbonyl-2-pyridinesulfonamide], the “Injury on Corn” value (corn plants; Frigate 0.1 % by volume, Compound A 30 g/ha) was 1.0, the “Injury on Corn” value (corn plants; Frigate 0.1 % by volume, Compound A 40 g/ha) was 1.0 and the “Injury on Corn” value (corn plants; [9]) was 1.0. The “Injury on Corn” value (corn plants; [10]) was 1.0 and 1.5, the “Injury on Corn” value (corn plants; [11]) was 1.5 and 2.0 and the “Injury on Corn” value (corn plants; [12]) was 1.0. For the same molecule, the “Injury on Corn” value (corn plants; [13]) was 1.0 and 1.5, the “Injury on Corn” value (corn plants; Frigate: No addition, Compound A 50 g/ha) was 1.0 and the inhibition at 30 g/ha (total evaluation [1]; 648 h, Frigate 0.1 % by volume, Compound A 30 g/ha, read-out: Growth Inhibition (%) TE) was 75%. It also gave an inhibition at 40 g/ha (total evaluation [1]; 648 h, Frigate 0.1 % by volume, read-out: Growth Inhibition (%) TE) of 90%, an inhibition at 20 g/ha (total evaluation [1]; 648 h, Frigate 0.2 % by volume, Compound A 20 g/ha, read-out: Growth Inhibition (%) TE) of 65% and an inhibition at 30 g/ha (total evaluation [1]; 648 h, Frigate 0.2 % by volume, Compound A 30 g/ha, read-out: Growth Inhibition (%) TE) of 80%. The inhibition at 40 g/ha (total evaluation [1]; 648 h, Frigate 0.2 % by volume, read-out: Growth Inhibition (%) TE) was 85%, the inhibition at 30 g/ha (total evaluation [1]; 648 h, Frigate: No addition, Compound A 30 g/ha, read-out: Growth Inhibition (%) TE) was 50% and the inhibition at 40 g/ha (total evaluation [1]; 648 h, Frigate: No addition, read-out: Growth Inhibition (%) TE) was 70%. The inhibition at 50 g/ha (total evaluation [1]; 648 h, Frigate: No addition, Compound A 50 g/ha, read-out: Growth Inhibition (%) TE) was 75%, the “Growth Inhibition (%) TE” value (total evaluation [1]; [12]) was 60% and the inhibition at 20 g/ha [2, 9] was 98%. The inhibition at 30 g/ha [2, 10] was 98%, the inhibition at 40 g/ha [2, 11] was 98% and the inhibition at 60 g/ha [2, 14] was 98%. It also gave an inhibition at 20 g/ha [3, 9] of 100%, an inhibition at 30 g/ha [3, 10] of 99% and an inhibition at 40 g/ha ([3]; Frigate 0.2 % by volume) of 99%. The inhibition at 60 g/ha ([3]; Frigate 0.2 % by volume) was 99%, the inhibition at 40 g/ha ([3]; Frigate: No addition) was 99% and the inhibition at 60 g/ha ([3]; Frigate: No addition) was 99%. It also gave an inhibition at 20 g/ha ([4]; Abutilon theophrasti, 648 h, Frigate 0.2 % by volume, Compound A 20 g/ha) of 75%, an inhibition at 30 g/ha ([4]; Abutilon theophrasti, 648 h, Frigate 0.2 % by volume, Compound A 30 g/ha) of 80% and an inhibition at 40 g/ha ([4]; Abutilon theophrasti, 648 h, Frigate 0.2 % by volume) of 80%. It also gave an inhibition at 60 g/ha ([4]; Abutilon theophrasti, 648 h, Frigate 0.2 % by volume, Compound A 60 g/ha) of 95%, an inhibition at 40 g/ha ([4]; Abutilon theophrasti, 648 h, Frigate: No addition) of 70% and an inhibition at 60 g/ha ([4]; Abutilon theophrasti, 648 h, Frigate: No addition, Compound A 60 g/ha) of 65%. The “Growth Inhibition (%) AT” value ([4]; Frigate 0.2 % by volume, Compound A 60 g/ha) was 100%, the inhibition at 20 g/ha ([5]; Chenopodium album, 648 h, Frigate 0.2 % by volume, Compound A 20 g/ha, read-out: Growth Inhibition (%) CA) was 80% and the inhibition at 30 g/ha ([5]; Chenopodium album, 648 h, Frigate 0.2 % by volume, Compound A 30 g/ha, read-out: Growth Inhibition (%) CA) was 80%. It also gave an inhibition at 40 g/ha [5, 15] of 95%, an inhibition at 60 g/ha [5, 15] of 99% and an inhibition at 40 g/ha [5, 16] of 40%. For the same molecule, the inhibition at 60 g/ha [5, 16] was 50%, the “Growth Inhibition (%) CA” value [5, 9] was 75% and the “Growth Inhibition (%) PL” value [6, 9] was 80%. The “Growth Inhibition (%) PL” value [6, 13] was 70%, the inhibition at 20 g/ha ([6]; Persicaria lapathifolia, 648 h, Frigate 0.2 % by volume, Compound A 20 g/ha, read-out: Growth Inhibition (%) PL) was 100% and the inhibition at 30 g/ha ([6]; Persicaria lapathifolia, 648 h, Frigate 0.2 % by volume, Compound A 30 g/ha, read-out: Growth Inhibition (%) PL) was 100%. It also gave an inhibition at 40 g/ha ([6]; Persicaria lapathifolia, 648 h, Frigate 0.2 % by volume, Compound A 40 g/ha, read-out: Growth Inhibition (%) PL) of 95%, an inhibition at 60 g/ha ([6]; Persicaria lapathifolia, 648 h, Frigate 0.2 % by volume, read-out: Growth Inhibition (%) PL) of 98% and an inhibition at 40 g/ha ([6]; Persicaria lapathifolia, 648 h, Frigate: No addition, Compound A 40 g/ha, read-out: Growth Inhibition (%) PL) of 90%. It also gave an inhibition at 60 g/ha ([6]; Persicaria lapathifolia, 648 h, Frigate: No addition, read-out: Growth Inhibition (%) PL) of 100%, an inhibition at 20 g/ha [7, 9] of 100% and an inhibition at 30 g/ha [7, 10] of 100%. For the same molecule, the inhibition at 40 g/ha [7, 11] was 100%, the inhibition at 60 g/ha [7, 14] was 100% and the inhibition at 20 g/ha (total evaluation [8]; [9]) was 95%. It also gave an inhibition at 30 g/ha (total evaluation [8]; [10]) of 95%, an inhibition at 40 g/ha (total evaluation [8]; Frigate 0.2 % by volume) of 95% and an inhibition at 60 g/ha (total evaluation [8]; Frigate 0.2 % by volume) of 99%. It also gave an inhibition at 40 g/ha (total evaluation [8]; Frigate: No addition) of 70% and an inhibition at 60 g/ha (total evaluation [8]; Frigate: No addition) of 70%.

Reference: patent publication EP0598515A1, “Method for herbicidal activity-enhancing, activity-enhanced herbicidal composition and activity-enhancing composition” (ISHIHARA SANGYO KAISHA LTD., priority 1992, dated 1994)
